# Measurements from patent publication US20160089379A1, “TREATMENT OF NEUROLOGICAL AND OTHER DISORDERS” (PALMAYA PTY LTD, priority 2013, published 2016).
# Like-named read-outs stand apart in the source and are kept apart here.
# Assays:
# patients [1] = assay: Naltrexone therapy in approximately 6,000 patients; format: in vivo, human
# Method: Our experiments in approximately 6,000 patients treated with naltrexone (release rate of between 0.5 to 20 mg/day) or 1 to 100 micrograms per hour, with similar release rates of antagonists, has confirmed improvements in multiple sclerosis in our patients and also in crohn's disease which are both inflammatory conditions. […] These experiments showing blocking of dopamine is why the combination of right hand isomer of naltrexone and flumazenil in the dose range described is the ideal treatment to arrest multiple sclerosis.
# human adult volunteers = assay: Infusion of flumazenil for treatment of benzodiazepine addiction; format: in vivo
# [2] = tested on: patient suffering from Parkinson's disease; assay: Finger tap test (one minute) and L-dopa intake in a Parkinson's disease patient; format: in vivo, human; conditions: for Tapping score: flumazenil 170 micrograms per hour plus 10 mg of valium per day
# Method: A study was conducted to test the theory that the loss of function of neuronal cells from hyperpolarisation in a patient suffering from Parkinson's disease could be reversed, improved or corrected. […] In addition, the patient was also given 10 mg of valium per day to facilitate the “sick cells” in the substantia niagra region of the brain stem, being able to produce their own dopamine again.
# The patient was asked to perform the “finger tap test”, which is an indicator of the extent of Parkinson's disease. Briefly, the patient is asked to tap an index finger as fast as possible for one (1) minute (CNS tap test). The greater the number of taps per minute, the greater the improvement.
# The following results were observed over four hours of treatment to the patient.
# [3] = tested on: idiopathic hypersomnia patients; assay: Treatment of idiopathic hypersomnia patients with flumazenil; format: in vivo, human
# Text: We tested this model of disease again in two idiopathic hypersomnia patients. Both individuals had severe sleep drunkenness for over 18 months (Patient 1) and for over 13 years (Patient 2). We believe this illness to be due to the damage in the balance between an initial insult that had caused hyperpolarisation of cells which made them nonresponsive to benzodiazepine, as the prolonged presence of high levels of endogenous benzodiazepines continues long after the initial insult or disease. The homeostatic mechanisms that balance the delivery of dopamine to their cells responded to the damaged benzodiazepine receptors by maintaining the endogenous benzodiazepines at a high level in order to get some benzodiazepines to their cells. This inadequate dopamine delivered by response to valium was not occurring when we met these patients and so their cells remained unable to conduct currents and also unable to recover from their hyperpolarisation in the absence of dopamine.
# […]. Patient 2 was treated in a similar way.
# This is in contrast with an existing patient treated by the Emery Research Group, who indicated a dose of approximately 2 mg per body mass unit per day would be required. For P1, with a BMI of 34 this would equate to 68 mg per day, 17 times what they were given during the infusion.
# During the infusion and the two weeks prior, P1 kept a record of sleepiness and mood, upon awaking, mid-awake and pre-sleep on a scale of 0-10. For sleepiness 0 represented an unavoidable need to sleep, while 10 is feeling awake and rested. Similarly for mood, 0 represents rock bottom, while 10 was chirpy, happy and cheerful.
# Solubility of flumazenil = format: physicochemical
# epilepsy patient = assay: Treatment of epilepsy patient with flumazenil; format: in vivo, human; conditions: 170 micrograms per hour, day following treatment
# patients [4] = tested on: patients
# patients [5] = conditions: intravenous or oral bolus doses as high as 20,000 micrograms; work of others; cited from earlier work
# release of dopamine = conditions: rats; combination of flumazenil and benzodiazepines; cited from earlier work
# [6] = P1, 4 day subcutaneous infusion, 4 mg per day
# [7] = P1, post treatment, scale of 0-10, 10 is feeling awake and rested
# [8] = P1, post treatment, scale of 0-10, 10 was chirpy, happy and cheerful
# [9] = P2, before dose was doubled to 8 mg/day
# [10] = release rate of between 0.5 to 20 mg/day or 1 to 100 micrograms per hour
smiles,measurement,setting,value
"O=C1CC[C@@]2(O)[C@H]3Cc4ccc(O)c5c4[C@@]2(CCN3CC2CC2)[C@H]1O5 (single isomer, unassigned) [L isomer of naltrexone]",dopamine effects,"patients [1]; human, in vivo",reduces dopamine effects
CCOC(=O)c1ncn2c1CN(C)C(=O)c1cc(F)ccc1-2 [flumazenil],relief in those who had damaged their benzodiazepine receptors,"human adult volunteers; 1-8 mg of flumazenil per day, usually within hours of commencing",gained relief
same,symptoms treated by benzodiazepines,"human adult volunteers; flumazenil infusions, within hours, maintained for up to 3 to 4 days or longer",marked improvement
same,safety of long term flumazenil in humans,"human adult volunteers; more than 500 patients, intravenous, subcutaneous and implant delivery",safe for use in human beings
same,Tapping score,[2]; 0 hours from infusion (baseline),40 taps per minute
same,Tapping score,[2]; 2 hours from infusion,50 taps per minute
same,Tapping score,[2]; 3 hours from infusion,60 taps per minute
same,Tapping score,[2]; 4 hours from infusion,73 taps per minute
same,L-dopa medication dosage after commencing infusion treatment,"[2]; reduced from 1500 mg/day within days of commencing infusion, with valium",250 mg/day
same,sleep drunkenness,"[3]; 4 mg per day, within 3 days, both patients",full relief
same,"concentration, memory and attention span",[3]; [6],marked improvement
same,symptoms of IH reported during the infusion,[3]; [6],"not having experienced any sleep drunkenness, excessive day time sleepiness, heart palpitations or cold hands and feet"
same,Stanford Sleepiness Scale (SSS) score,"[3]; P1, at completion of flumazenil treatment, 6 out of a possible 8 at the time of treatment",3
same,Epworth Sleepiness Scale (ESS) score,"[3]; P1, at completion of flumazenil treatment, 21 of a possible 24 at the time of treatment",4
same,Awaking sleepiness,[3]; [7],6.2 ± 0.8
same,Mid-awake sleepiness,[3]; [7],6.8 ± 0.5
same,Pre-sleep sleepiness,[3]; [7],5.8 ± 1.7
same,Awaking mood,[3]; [8],8.8 ± 0.4
same,Mid-awake mood,[3]; [8],8.8 ± 0.5
same,Pre-sleep mood,[3]; [8],8.5 ± 0.6
same,mental clarity of second patient (P2),[3]; [9],increase in mental clarity
same,tiredness and napping of second patient (P2),[3]; [9],still been very tired and napping through the day
same,health status of Patient 1,"[3]; flumazenil infusion at 2 mg/day by implant, within 7 days",full return to normal health
same,solubility,"Solubility of flumazenil; pH 1.2, simulated gastric fluid",3000 µg/mL
same,solubility,"Solubility of flumazenil; pH 7.5, aqueous buffer, pH of 7.5",600 µg/mL
same,tolerance of light (light activating peti mal episodes),epilepsy patient,able to go for a walk in the sun for an hour with no hat or sunglasses
same,fits (peti mal episodes),"epilepsy patient; none since (48 hour), previously at least 4-5 times each day",no fits
same,calmness and the ability to relate to others,"patients [4]; 20 to 300 microgram per hour, subcutaneous and intravenous infusions, within 3 days (5 days at the lower end)",significant improvement
same,"extent of changes in those with depression, anxiety and fear",patients [4]; at the 20 mg/hour end of the scale,less
same,"extent of changes in those with depression, anxiety and fear",patients [4]; beyond 40 mg/hour,very marked
same,"confidence in those with depression, anxiety and fear",patients [4]; during the infusion treatment,showed a confidence in themselves
same,depression and anxiety symptoms in patients previously diagnosed with psychosis,patients [4]; more than 20 of the 500,lifted in their depression and in their anxiety symptoms
same,alertness during infusion treatment,patients [4]; most of the 500,an increase in problem solving and reported a decrease in distractibility
same,sleep,"patients [4]; nearly all of the 500, one patient reported difficulty getting to sleep",return to natural sleep
same,adverse effects of bolus doses,patients [5],anxiety attacks or fits
same,release of dopamine,release of dopamine,enhance the release of dopamine
O=C1CC[C@@]2(O)[C@H]3Cc4ccc(O)c5c4[C@@]2(CCN3CC2CC2)[C@H]1O5 [naltrexone],crohn's disease,patients [1]; [10],improvements
same,multiple sclerosis,patients [1]; [10],improvements
